Experimental findings from ChEMBL document CHEMBL1201862, “PubChem BioAssay data set” (2004) are described below.

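Cells were grown in 96-well plates and exposed to each compound for 48 hours at five concentrations; endpoints were interpolated linearly between bracketing concentrations, or set to the highest concentration if not reached. At the GI50, growth is halved.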 Activity calls are given as the source filed them. No stated cut-off is given here; in the data, active = GI50 up to about 1.1 µM and inactive = higher.

Test systems include A498; A549; ACHN; DU-145; HCC 2998; HCT-116; HCT-15; HOP-92; IGROV-1; MOLT-4; OVCAR-3; PC-3; RPMI-8226; SF-295; SK-MEL-2; SK-MEL-5; SR; SW-620; U-251; UO-31.
What all share (test): DTP human tumour cell line panel, 48 h

The GI50 is the concentration that inhibits growth by half. In the case of `OC(C1=C/C(=C\c2ccncc2)c2ccccc21)c1ccncc1` (stereo not given), the GI50 in the assay on A498 is 12.9 µM (inactive); with A549, 13.3 µM (inactive); in the assay with ACHN, 14.8 µM (inactive); in the assay with DU-145, 17 µM (inactive); in the assay on HCC 2998 it was 8.39 µM (inactive); with HCT-116, 13.6 µM (inactive). In addition, the GI50 in the assay with HCT-15 was 16.5 µM; in the assay with HOP-92 it was 13.6 µM (inactive); with IGROV-1, 14.4 µM (inactive); in the assay with MOLT-4, 5.71 µM (inactive); in the assay with OVCAR-3 it was 11.1 µM (inactive); with PC-3, 10.8 µM (inactive). The GI50 in the assay with RPMI-8226 was 2.37 µM (inactive); in the assay with SF-295, 8.65 µM (inactive); with SK-MEL-2, 14.3 µM (inactive); with SK-MEL-5 it was 3.21 µM (inactive); with SR, 5.4 µM (inactive); in the assay on SW-620, 23 µM (inactive). Also, the GI50 in the assay with U-251 is 14.7 µM (inactive); with UO-31 it was 8.99 µM (inactive).

As for `C=CCO/N=C/c1cc(/N=C(/S)c2ccoc2C)ccc1Cl`, the GI50 in the assay on A498 was 20 µM (inactive); with A549, 21 µM (inactive); in the assay on ACHN, 5.71 µM (inactive); with DU-145, 14 µM (inactive); with HCC 2998 it was 10.5 µM (inactive); with HCT-116, 10.9 µM (inactive). The GI50 in the assay on HCT-15 is 8.26 µM; with HOP-92, 17.3 µM (inactive); in the assay with IGROV-1, 13.2 µM (inactive); in the assay on MOLT-4 it was 5.71 µM (inactive); with OVCAR-3, 11.5 µM (inactive); in the assay on PC-3, 11.4 µM (inactive). The GI50 was 3.27 µM (inactive) in the assay on RPMI-8226; 9.48 µM (inactive) with SF-295; 13.6 µM (inactive) in the assay on SK-MEL-2; 11.4 µM (inactive) in the assay with SK-MEL-5; 6.22 µM (inactive) with SR; 33.8 µM (inactive) in the assay on SW-620. The GI50 was 13.9 µM (inactive) in the assay with U-251 and 5.15 µM (inactive) with UO-31.

Consider `CN1c2ccc(O)c(O)c2-c2cc(O)cc3c2C1CCC3` (stereo not given), for which the GI50 in the assay on A498 is > 76.2 µM (inactive); in the assay on A549 it was 29.9 µM (inactive); in the assay with ACHN, 16.7 µM (inactive); in the assay with DU-145, 16 µM (inactive); with HCC 2998 it was 20.5 µM (inactive); in the assay on HCT-116 it was 14.6 µM (inactive). The 50% growth inhibitory concentration (GI50) was 20.6 µM with HCT-15; 13.9 µM (inactive) with HOP-92; 11.6 µM (inactive) with IGROV-1; 7.4 µM (inactive) with MOLT-4; 4.55 µM (inactive) in the assay on OVCAR-3; 19.2 µM (inactive) in the assay with PC-3. The GI50 with RPMI-8226 is 3.31 µM (inactive); in the assay on SF-295, 57.7 µM (inactive); with SK-MEL-2, 24 µM (inactive); in the assay with SK-MEL-5 it was 15.7 µM (inactive); in the assay with SR it was 7 µM (inactive); in the assay with SW-620 it was 17.5 µM (inactive). Further, the GI50 with U-251 is 23.4 µM (inactive); in the assay with UO-31, 13.6 µM (inactive).

In the case of `O=C1C(Nc2ccc(S(=O)(=O)Nc3cnc4ccccc4n3)cc2)=C/C(=N\c2ccc(S(=O)(=O)Nc3cnc4ccccc4n3)cc2)c2ccccc21`, the GI50 is 15.3 µM (inactive) in the assay on A498; 19.7 µM (inactive) in the assay with A549; 30.7 µM (inactive) in the assay with ACHN; 16.9 µM (inactive) with DU-145; 17.5 µM (inactive) with HCC 2998; 18.3 µM (inactive) in the assay with HCT-116. In addition, the concentration for 50% growth inhibition (GI50) is 18.4 µM in the assay with HCT-15; 15 µM (inactive) in the assay on HOP-92; 19.1 µM (inactive) in the assay on IGROV-1; 25 µM (inactive) in the assay with MOLT-4; 19.8 µM (inactive) in the assay on OVCAR-3; 20.5 µM (inactive) in the assay on PC-3. The GI50 was 27.9 µM (inactive) in the assay on RPMI-8226; 16.3 µM (inactive) in the assay on SF-295; 17.9 µM (inactive) in the assay with SK-MEL-2; 17.5 µM (inactive) with SK-MEL-5; 31.4 µM (inactive) in the assay with SR; 17.5 µM (inactive) in the assay on SW-620. Moreover, the GI50 is 19.1 µM (inactive) in the assay on U-251 and 15.6 µM (inactive) in the assay on UO-31.

For the compound `CCCC(=O)Nc1cc(/C=C/C(=O)N2CC(CCl)c3ccc(N)cc32)n(C)c1` (stereo not given), the 50% growth inhibitory concentration (GI50) with A498 is 0.0223 µM (active); in the assay on A549, 0.0294 µM (active); in the assay on ACHN it was 0.0248 µM (active); with DU-145, 0.0361 µM (active); in the assay with HCC 2998, 0.0908 µM (active); in the assay with HCT-116, 0.129 µM (active). In addition, the concentration for 50% growth inhibition (GI50) in the assay with HCT-15 is 0.304 µM; in the assay with HOP-92, 0.0964 µM (active); with IGROV-1, 0.229 µM (active); with MOLT-4 it was 0.17 µM (active); in the assay on OVCAR-3 it was 0.268 µM (active); in the assay with PC-3, 0.215 µM (active). The GI50 was 0.177 µM (active) with RPMI-8226; 0.214 µM (active) in the assay with SF-295; 0.212 µM (active) in the assay on SK-MEL-2; 0.11 µM (active) in the assay on SK-MEL-5; 0.0242 µM (active) in the assay on SR; 0.29 µM (active) in the assay on SW-620. For the same compound, the 50% growth inhibitory concentration (GI50) is 0.324 µM (active) in the assay on U-251 and 0.159 µM (active) in the assay on UO-31.

As to `O=C(n1c(=O)n(-c2ccc(Cl)cc2)c(=O)n1C(=O)C(Cl)(Cl)Cl)C(Cl)(Cl)Cl`, the GI50 was > 100 µM (inactive) in the assay with A498; > 100 µM (inactive) with A549; 12.7 µM (inactive) in the assay with ACHN; > 100 µM (inactive) in the assay with DU-145; > 100 µM (inactive) in the assay with HCC 2998; > 100 µM (inactive) with HCT-116. For the same compound, the 50% growth inhibitory concentration (GI50) is over 10 µM in the assay on HCT-15; > 100 µM (inactive) in the assay on HOP-92; > 100 µM (inactive) in the assay on IGROV-1; > 100 µM (inactive) in the assay with MOLT-4; > 100 µM (inactive) in the assay with OVCAR-3; > 100 µM (inactive) in the assay with PC-3. The GI50 with RPMI-8226, in the assay with SF-295, in the assay on SK-MEL-2, in the assay with SK-MEL-5, in the assay on SR and in the assay on SW-620 was > 100 µM (inactive) each time. Moreover, the GI50 with U-251 was > 100 µM (inactive); in the assay on UO-31, 31 µM (inactive).

Consider `O=C(N/N=C\c1cccc2c([N+](=O)[O-])cccc12)Nc1ccccc1`, for which the GI50 in the assay with A498 is 16.5 µM (inactive); with A549, 10.3 µM (inactive); in the assay with ACHN it was 14.2 µM (inactive); with DU-145 it was 26.9 µM (inactive); in the assay with HCC 2998, 15.1 µM (inactive); with HCT-116, 5.37 µM (inactive). For the same compound, the 50% growth inhibitory concentration (GI50) in the assay with HCT-15 is 11.2 µM; with HOP-92, 12.3 µM (inactive); in the assay with IGROV-1, 19 µM (inactive); in the assay on MOLT-4 it was 13.4 µM (inactive); with OVCAR-3 it was 14.2 µM (inactive); with PC-3, 14.8 µM (inactive). Besides, the GI50 was 14.7 µM (inactive) with RPMI-8226; 13.9 µM (inactive) in the assay on SF-295; 2.27 µM (inactive) in the assay on SK-MEL-2; 14.1 µM (inactive) in the assay on SK-MEL-5; 11.3 µM (inactive) with SR; 13.2 µM (inactive) with SW-620. Besides, the results for the GI50 in the assay with U-251 and in the assay on UO-31 were 7.08 µM (inactive) and 13.2 µM (inactive), respectively.
